Measurements taken from ChEMBL document CHEMBL1122801, “Nontricyclic antidepressant agents derived from cis- and trans-1-amino-4-aryltetralins” (J Med Chem, 1984).
Counter-ions that a name gives are not always drawn.

Assays:
[1] = biological target: Sodium-dependent dopamine transporter (Rattus norvegicus, UniProt P23977); test: Inhibition of dopamine uptake in synaptosomal preparation in rat corpus striatum, using [3H]dopamine; format: functional, tissue-based
[2] = biological target: Norepinephrine transporter (Rattus norvegicus, UniProt Q9WTR4); test: Inhibition of norepinephrine uptake in synaptosomal preparation fro rat hypothalamus, using [3H]norepinephrine; format: functional, tissue-based
Sequence of Norepinephrine transporter (Q9WTR4 whole entry): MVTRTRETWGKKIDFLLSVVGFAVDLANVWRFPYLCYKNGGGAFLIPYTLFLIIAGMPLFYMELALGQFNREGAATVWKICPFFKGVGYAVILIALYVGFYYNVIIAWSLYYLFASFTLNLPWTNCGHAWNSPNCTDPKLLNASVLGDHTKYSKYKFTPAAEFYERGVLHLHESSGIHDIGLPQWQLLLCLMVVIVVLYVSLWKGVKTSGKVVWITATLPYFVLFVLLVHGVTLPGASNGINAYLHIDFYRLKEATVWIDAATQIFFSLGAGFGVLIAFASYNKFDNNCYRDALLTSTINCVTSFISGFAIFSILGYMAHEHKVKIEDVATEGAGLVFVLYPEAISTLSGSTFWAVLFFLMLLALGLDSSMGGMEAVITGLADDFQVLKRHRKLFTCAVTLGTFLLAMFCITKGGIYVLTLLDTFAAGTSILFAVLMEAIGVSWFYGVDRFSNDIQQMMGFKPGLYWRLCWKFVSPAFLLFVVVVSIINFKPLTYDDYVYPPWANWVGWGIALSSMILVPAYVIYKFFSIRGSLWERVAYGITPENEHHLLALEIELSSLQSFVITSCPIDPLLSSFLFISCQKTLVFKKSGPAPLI

Sequence of Sodium-dependent dopamine transporter (P23977 whole entry): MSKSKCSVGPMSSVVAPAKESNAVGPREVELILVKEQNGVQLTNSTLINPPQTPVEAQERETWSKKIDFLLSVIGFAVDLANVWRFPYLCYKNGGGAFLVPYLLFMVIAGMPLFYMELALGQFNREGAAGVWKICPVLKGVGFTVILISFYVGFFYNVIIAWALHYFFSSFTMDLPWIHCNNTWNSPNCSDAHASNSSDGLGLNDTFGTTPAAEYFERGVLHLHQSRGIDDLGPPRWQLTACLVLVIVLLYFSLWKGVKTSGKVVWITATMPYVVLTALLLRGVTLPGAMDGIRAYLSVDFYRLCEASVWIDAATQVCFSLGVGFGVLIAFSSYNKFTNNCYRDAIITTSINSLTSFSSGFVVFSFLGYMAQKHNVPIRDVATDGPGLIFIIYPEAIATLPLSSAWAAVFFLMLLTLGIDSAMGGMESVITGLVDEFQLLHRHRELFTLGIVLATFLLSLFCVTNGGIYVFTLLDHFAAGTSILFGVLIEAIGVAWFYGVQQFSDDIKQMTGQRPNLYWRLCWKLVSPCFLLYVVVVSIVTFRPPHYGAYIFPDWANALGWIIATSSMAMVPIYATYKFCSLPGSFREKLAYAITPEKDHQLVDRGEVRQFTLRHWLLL

SMILES | IC50 [1] [µM] | IC50 [2] [µM]
CN[C@@H]1CC[C@@H](c2ccc(F)cc2)c2ccccc21 | 0.22 | 0.03
CN[C@H]1CC[C@@H](c2ccc(F)cc2)c2ccccc21 | 4.7 | 2.3
CN[C@H]1CC[C@@H](c2ccc(OC)cc2)c2ccccc21 | 4.2 | 3
CN[C@@H]1CC[C@@H](c2ccc(OC)cc2)c2ccccc21 | 0.4 | 0.15
CN[C@@H]1CC[C@@H](c2ccc(Br)cc2)c2ccccc21 | 0.08 | 0.03
CCCCOc1ccc([C@@H]2CC[C@@H](NC)c3ccccc32)cc1 |  | 1.15
CN(C)[C@@H]1CC[C@@H](c2ccccc2)c2ccccc21 | 0.84 | 0.14
CN(C)[C@@H]1CC[C@@H](c2ccc(Cl)cc2)c2ccccc21 | 0.38 | 0.13
CN[C@H]1CC[C@@H](c2ccc(Br)cc2)c2ccccc21 | 1.6 | 1.4
CCCCOc1ccc([C@@H]2CC[C@H](NC)c3ccccc32)cc1 |  | 0.94
CN(C)[C@H]1CC[C@@H](c2ccc(Cl)cc2)c2ccccc21 | 5.6 | 1.16
CN(C)[C@H]1CC[C@@H](c2ccccc2)c2ccccc21 | 10 | 0.31
CN[C@H]1CC[C@@H](c2ccccc2)c2ccccc21 | 5.1 | 1.86
CN[C@H]1CC[C@@H](c2cccc(C(F)(F)F)c2)c2ccccc21 | 2.54 | 2.55
CN(C)[C@@H]1CC[C@@H](c2cccc(C(F)(F)F)c2)c2ccccc21 | 6.1 | 1.4
CN(C)[C@@H]1CC[C@@H](c2ccc(C(F)(F)F)cc2)c2ccccc21 | 9.8 | 4.7
CN(C)[C@H]1CC[C@@H](c2cccc(C(F)(F)F)c2)c2ccccc21 | 7 | 0.89
CN[C@@H]1CC[C@@H](c2cccc(C(F)(F)F)c2)c2ccccc21 | 2.6 | 0.26
CN(C)[C@H]1CC[C@@H](c2ccc(C(F)(F)F)cc2)c2ccccc21 | 12.2 | 14.2
CN[C@@H]1CC[C@@H](c2ccccc2)c2ccccc21 (stereo in doubt; 44) [TAMETRALINE] | 0.15 | 0.018
CN[C@@H]1CC[C@@H](c2ccccc2)c2ccccc21 (stereo in doubt; 45) [TAMETRALINE] | 1.4 | 0.37
CN[C@H]1CC[C@@H](c2ccccc2)c2ccccc21 (stereo in doubt; 50) | 5.5 | 1.8
CN[C@H]1CC[C@@H](c2ccccc2)c2ccccc21 (stereo in doubt; 51) | 10.2 | 4.2
CN[C@H]1CC[C@@H](c2cccc(C(F)(F)F)c2)c2ccccc21 (stereo in doubt; 56) | 9.7 | 2.7
CN[C@H]1CC[C@@H](c2cccc(C(F)(F)F)c2)c2ccccc21 (stereo in doubt; 57) | 2.5 | 7.8
CN1Cc2c(N)cccc2C(c2ccccc2)C1 (configuration not stated) [NOMIFENSINE] |  | 0.02
CN[C@@H]1CC[C@@H](c2ccccc2)c2ccccc21 [TAMETRALINE HYDROCHLORIDE] | 0.21 | 0.04

Further lines, with some results ahead:

IC50 [1] [µM] | SMILES | IC50 [2] [µM]
0.17 | CN(C)[C@@H]1CC[C@@H](c2ccc(Cl)c(Cl)c2)c2ccccc21 | 
6.8 | CN[C@H]1CC[C@@H](c2ccc(Oc3ccccc3)cc2)c2ccccc21 | 3.9
4.4 | CN[C@@H]1CC[C@@H](c2ccc(C(F)(F)F)cc2)c2ccccc21 | 0.69
5 | CN[C@H]1CC[C@@H](c2cccc(OC)c2)c2ccccc21 | 1.4
11.2 | CN[C@H]1CC[C@@H](c2ccccc2OC)c2ccccc21 | 2.3
0.53 | CN[C@@H]1CC[C@@H](c2cccc(OC)c2)c2ccccc21 | 0.06
5.7 | CN[C@@H]1CC[C@@H](c2ccccc2OC)c2ccccc21 | 0.48
6.1 | CN[C@@H]1CC[C@@H](c2ccc(Cl)cc2Cl)c2ccccc21 | 
7.3 | CN[C@@H]1CC[C@@H](c2ccc(Cl)c(C(F)(F)F)c2)c2ccccc21 | 
10 | N[C@H]1CC[C@@H](c2ccc(C(F)(F)F)cc2)c2ccccc21 | 7.5
4.7 | N[C@H]1CC[C@@H](c2cccc(C(F)(F)F)c2)c2ccccc21 | 3.5
1.25 | N[C@H]1CC[C@@H](c2ccc(Cl)c(Cl)c2)c2ccccc21 | 0.25
0.85 | CN[C@H]1CC[C@@H](c2ccc(F)c(OC)c2)c2ccccc21 | 3.3
8.4 | CN[C@@H]1CC[C@@H](c2ccc(Oc3ccccc3)cc2)c2ccccc21 | 2.3
1.7 | CN[C@H]1CC[C@@H](c2ccc(Cl)cc2Cl)c2ccccc21 | 
1.5 | CN[C@H]1CC[C@@H](c2ccc(Cl)c(C(F)(F)F)c2)c2ccccc21 | 
7.8 | CN[C@H]1CC[C@@H](c2ccc(C(F)(F)F)cc2)c2ccccc21 | 9.8
1.2 | CN[C@@H]1CC[C@@H](c2ccc(F)c(OC)c2)c2ccccc21 | 0.34
2 | CN(C)[C@H]1CC[C@@H](c2ccc(Cl)c(Cl)c2)c2ccccc21 | 
6.4 | CN[C@H]1CC[C@@H](c2ccc(C(F)(F)F)cc2)c2ccccc21 (stereo in doubt; 54) | 9.4
5.6 | CN[C@H]1CC[C@@H](c2ccc(C(F)(F)F)cc2)c2ccccc21 (stereo in doubt; 55) | 12
6.2 | CN[C@H]1CC[C@@H](c2ccc(Cl)c(C(F)(F)F)c2)c2ccccc21 (stereo in doubt; 60) | 
0.49 | CN[C@H]1CC[C@@H](c2ccc(Cl)c(C(F)(F)F)c2)c2ccccc21 (stereo in doubt; 61) | 
45 | COCCCC/C(=N\OCCN)c1ccc(C(F)(F)F)cc1 [FLUVOXAMINE] | 1.9
43 | CN(C)C/C=C(/c1ccc(Br)cc1)c1cccnc1 [ZIMELDINE] | 
